According to patent US7230104B2, “Fungicidal 5-phenyl substituted 2-(cyanoamino) pyrimidines” (priority 2000, dated 2007):
In brackets after ≈: the same amount, converted by molar mass.

Experiments:
Rhizoctonia solani = conditions: 10 ppm; 3–7 days of incubation
Procedure: After 3–7 days of incubation, inhibition of mycelial growth is recorded using the following scale: The data obtained are shown in Table VI.

[1] = Evaluation of in vivo fungicidal activity, Grape downy mildew (GDM); parameters: species or system Uniclnula necator; conditions: plants sprayed with 200 ppm test solution, inoculated the same day
[2] = system: Pyricularia grisea sp. oryzae; format: in vivo; conditions: Rice Blast; plants sprayed with 200 ppm test solution, inoculated the same day
Venturia inaequalis = test: Evaluation of in vivo fungicidal activity, Apple Scab (AS); conditions: plants sprayed with 200 ppm test solution, inoculated the same day
Pyricularia Oryzae = format: cell-based; conditions: lowest concentration causing total inhibition of mycelial growth; 6–12 days incubation at 18 to 25° C.; visual inspection

SMILES	Rhizoctonia solani (Rice sheath blight) inhibition of mycelial growth rating (Rhizoctonia solani)	GDM disease control rating [1]	RB disease control rating [2]	AS disease control rating (Venturia inaequalis)	MIC (Pyricularia Oryzae)
CC(Nc1nc(N(C)C#N)nc(Cl)c1-c1c(F)cc(F)cc1F)C(F)(F)F (centres unmarked) [Example 1, 2-(N-cyano-N-methylamino)-4-chloro-5-(2,4,6-trifluorophenul)-6-(1,1,1-trifluoroprop-2-ylamino)-pyrimidine]	7				
CCCCN(C#N)c1nc(Cl)c(-c2c(F)cc(F)cc2F)c(NC(C)C(F)(F)F)n1 (centres unmarked) [Example 2]		0 (0)	0 (0)	0 (0)	
CC(C)Nc1nc(N(C)C#N)nc(Cl)c1-c1c(F)cc(F)cc1F [Example 3]		7 (90–95)	5 (60–74)	7 (90–95)	3.13 µg/mL (≈ 8.8 µM)
CN(C#N)c1nc(Cl)c(-c2c(F)ccc(F)c2F)c(NC2CCCC2)n1 [Example 4]	7	3 (30–44)	3 (30–44)	5 (60–74)	>100 µg/mL
CC1CCN(c2nc(N(C)C#N)nc(Cl)c2-c2c(F)cccc2Cl)CC1 [Example 5]	0	0 (0)	4 (45–59)	9 (100)	25 µg/mL (≈ 63.4 µM)
CCC(C)Nc1nc(N(C)C#N)nc(Cl)c1-c1c(F)cccc1Cl (centres unmarked) [Example 6]	0	3 (30–44)	6 (75–89)	9 (100)	6.25 µg/mL (≈ 17 µM)
CC1CCN(c2nc(N(C)C#N)nc(Cl)c2-c2c(F)cc(F)cc2F)CC1 [Example 7]	0				100 µg/mL (≈ 253 µM)
CC(N(C)c1nc(N(C)C#N)nc(Cl)c1-c1c(F)cc(F)cc1F)C(F)(F)F (centres unmarked) [Example 8]	7				
